We go through 20 compounds from patent publication US9540325B2, “N1-cyclic amine-N5-substituted phenyl biguanide derivatives, methods of preparing the same and pharmaceutical composition comprising the same” (Immunomet Therapeutics, Inc., priority 2011, dated 2017).

One data set relates to AMPKα. Briefly: Measurement of AMPK activation effect (AMPKα Thr172 phosphorylation immunoassay) in MCF7 cells. To be noted: 24 hours; for AMPK activation effect at 10 μM (%) / AMPK activation effect at 50 μM (%): relative to untreated cells; for AMPK activation effect AC150: concentration at which AMPK activation reached 150%. Format: cell-based, human. On the procedure:
MCF7 cells derived from human breast cancer cells (commercially available from the Korean Cell Line Bank) were used, and the AMPK activation effect of the biguanide derivative was confirmed using an AMPKα immunoassay kit (Invitrogen, Catalog No. KHO0651).
MCF7 cells were cultured in a DMEM medium supplemented with 10% fetal bovine serum. Thereafter, the cultured MCF7 cells were put into a 6-well plate with approximately 5×10^5 cells per well and cultured in an incubator supplied with 5% CO2. Culture media were treated with the derivatives synthesized in the examples at contents of 5, 10 and 50 μM, and then cultured for 24 hours. Metformin hydrochloride was used as the control, and the culture media were treated with 0.05, 0.5, 1, 2, 5 and 10 mM metformin hydrochloride, and then tested in the same manner as described in the derivatives synthesized in the examples. Subsequently, the cells were lysed according to a method presented in the operation manual of the AMPKα immunoassay kit, and 20 μg of a cell lysate was then yielded through protein assay. Thereafter, the AMPK activation effect was obtained by determining the degree of phosphorylation of 172nd threonine residue (Thr172) of the AMPKα from the cell lysate according to the method presented in the operation manual of the AMPKα immunoassay kit. […] A curve graph showing AMPK activation according to the concentration of the treated compounds was plotted based on the obtained AMPKα activation results, the concentration (activation concentration 150, AC150) value of the compound whose AMPK activation reached 150% was calculated using a GraphPad Prism 5.0 program, and the degrees of AMPK activation were obtained when concentrations of the treated biguanide derivatives were 10 μM and 50 μM and the metformin hydrochloride was 50 μM

The subject of a further data set is HCT116 cells. Briefly: Measurement of effect of inhibiting cancer cell proliferation (MTT). The class given is cell-based, human. The settings on record: for inhibition at 100 µM: HCT-116, 100 μM, read-out: Cell Growth Inhibition (%) at 100 μM. The source says: HCT116 cells derived from human colorectal cancer (commercially available from the Korean Cell Line Bank) were used, and the effect of inhibiting cancer cell proliferation of the biguanide derivative was confirmed by measuring the concentration value (cell growth inhibition concentration, GIC50) at which cell growth was inhibited by 50% using a 3-(4,5-dimethylthiazol-2-yl)-2,5-diphenyltetrazolium bromide (MTT) reagent.
First, HCT116 cells were put on a 96-well plate and cultured in a DMEM medium containing 10% fetal bovine serum for 16 hours so that the cellcount in each well was approximately 5,000. Subsequently, to obtain the GIC50 value of each compound, culture media were treated with 100 μM, 25 μM, 6.25 μM, 1.56 μM or 0.39 μM of the compound, and then cultured for 48 hours. Metformin hydrochloride was used as the control, and the culture media were treated with 25, 12.5, 2.5, 0.5, 0.1 mM metformin hydrochloride, and then tested in the same manner as described in the derivatives synthesized in the examples. In order to determine whether the cells survived after treatment with the compounds, MTT was added to the culture media which were then cultured for another 3 hours. Formed formazane crystals were dissolved using dimethyl sulfoxide (DMSO), and the absorbance of the resulting solution was measured at 560 nm. After the 48-hour culture, […] was indicated as cell viability (%) according to each treated concentration. A cell viability curve graph was plotted and the concentration (GIC50) value of the compound at which the growth was inhibited by 50% was calculated to confirm the inhibition effect of cancer cell proliferation. Also, the cell growth viability (%) when the concentration of the treated biguanide derivative and the metformin hydrochloride as the control were 100 μM was shown.

The term melting point denotes the temperature of the solid-liquid transition. The term inhibition denotes the relative decrease from the control value, in per cent. Broadly, the GI50 is the concentration at which growth is held to half of that of the control. A high value points to less potent growth inhibition.

Where a name gives a salt, the structure may show the parent alone. Bounds are passed on as bounds.

Turning to `N=C(NC(=N)N1CCCCC1)Nc1ccc(C(F)(F)F)cc1` (as salt: acetate) [Example 71, N1-piperidine-N5-(4-trifluoromethyl)phenyl biguanide acetate], the melting point fell in the range of 198 to 200 °C.

As for `N=C(NC(=N)N1CCCCC1)Nc1ccc(OC(F)(F)F)cc1` (as salt: acetate) [Example 73, N1-piperidine-N5-(4-trifluoromethoxy)phenyl biguanide acetate], the melting point lay within 200 to 202 °C.

On to `N=C(NC(=N)N1CCCC1)Nc1ccc(C(F)(F)F)c(F)c1` (as salt: acetate) [Example 74, N1-pyrrolidine-N5-(3-fluoro-4-trifluoromethyl)phenyl biguanide acetate], for which the melting point was in the range of 204 to 205 °C.

`N=C(NC(=N)N1CCCCC1)Nc1ccc(C(F)(F)F)c(F)c1` (as salt: acetate) [Example 75, N1-piperidine-N5-(3-fluoro-4-trifluoromethyl)phenyl biguanide acetate] showed a melting point of 206 to 208 °C.

For the compound `N=C(NC(=N)N1CCCC1)Nc1ccc(OC(F)(F)F)c(F)c1` (as salt: acetate) [Example 76, N1-pyrrolidine-N5-(3-fluoro-4-trifluoromethoxy)phenyl biguanide acetate], the melting point is 203 to 205 °C.

On to `N=C(NC(=N)N1CCCCC1)Nc1ccc(OC(F)(F)F)c(F)c1` (as salt: acetate) [Example 77, N1-piperidine-N5-(3-fluoro-4-trifluoromethoxy)phenyl biguanide acetate], for which the melting point was 202 to 204 °C.

`Cl.N=C(NC(=N)N1CCCCC1)Nc1cccc(Br)c1` [Example 7, N1-piperidine-N5-(3-bromo)phenyl biguanide hydrochloride] displayed a melting point of 263 to 264 °C. For the same compound, in the data set on AMPKα, the “AMPK activation effect at 10 μM (%)” value is on record as 526% and the “AMPK activation effect AC150” value stood at 0.9 µM. In the data set on HCT116 cells (Homo sapiens, 48 hours), the inhibition at 100 µM was 97.2%. This compound returned a GI50 in the data set with HCT116 cells (Homo sapiens, HCT-116, 48 h) of 7 µM.

`Cl.N=C(NC(=N)N1CCCCC1)Nc1ccccc1` [Example 8, N1-piperidine-N5-phenyl biguanide hydrochloride] returned a melting point of 204 to 206 °C. Further, in the data set on AMPKα, the “AMPK activation effect at 50 μM (%)” value stood at 347% and the “AMPK activation effect AC150” value was found to be 10.1 µM. The inhibition at 100 µM in the data set with HCT116 cells (Homo sapiens, 48 hours) came to 77.6%. In the data set with HCT116 cells (Homo sapiens, HCT-116, 48 h), this compound displayed a GI50 of 56.8 µM.

In turn, `Cc1cccc(NC(=N)NC(=N)N2CCCCC2)c1.Cl` [Example 9, N1-piperidine-N5-(3-methyl)phenyl biguanide hydrochloride] displayed a melting point of 239 to 240 °C. Also, in the data set with AMPKα, the “AMPK activation effect at 10 μM (%)” value amounted to 149%, the “AMPK activation effect at 50 μM (%)” value is listed as 255% and the “AMPK activation effect AC150” value is 12.4 µM. The inhibition at 100 µM in the data set with HCT116 cells (Homo sapiens, 48 hours) came to 79.1%. Besides, it took 13.4 µM to inhibit growth with HCT116 cells (Homo sapiens, HCT-116, 48 h) by half (GI50).

As for `CCc1cccc(NC(=N)NC(=N)N2CCCCC2)c1.Cl` [Example 10, N1-piperidine-N5-(3-ethyl)phenyl biguanide hydrochloride], the melting point lay in the range of 225 to 227 °C. Further, in the data set with AMPKα, the “AMPK activation effect at 10 μM (%)” value amounted to 178%, the “AMPK activation effect at 50 μM (%)” value was 598% and the “AMPK activation effect AC150” value stood at 7.3 µM. Moreover, in the data set on HCT116 cells (Homo sapiens, 48 hours), the inhibition at 100 µM worked out at 97.4%. In the data set with HCT116 cells (Homo sapiens, HCT-116, 48 h), halving of growth (GI50) required 27.3 µM.

Compound `Cl.N=C(NC(=N)N1CCCCC1)Nc1cccc(O)c1` [Example 11, N1-piperidine-N5-(3-hydroxy)phenyl biguanide hydrochloride] had a melting point of 210 to 212 °C. Further, in the data set on AMPKα, the “AMPK activation effect at 10 μM (%)” value worked out at 127%, the “AMPK activation effect at 50 μM (%)” value is reported as 127% and the “AMPK activation effect AC150” value was over 50 µM. The inhibition at 100 µM in the data set on HCT116 cells (Homo sapiens, 48 hours) was determined as 29.7%. This compound came in with a GI50 with HCT116 cells (Homo sapiens, HCT-116, 48 h) of over 100 µM.

Turning to `Cl.N=C(NC(=N)N1CCCCC1)Nc1cccc(CO)c1` [Example 12, N1-piperidine-N5-(3-hydroxymethyl)phenyl biguanide hydrochloride], the melting point was 225 to 227 °C. Also, in the data set on AMPKα, the “AMPK activation effect at 10 μM (%)” value was 107%, the “AMPK activation effect at 50 μM (%)” value was found to be 149% and the “AMPK activation effect AC150” value was over 50 µM. Besides, the inhibition at 100 µM in the data set with HCT116 cells (Homo sapiens, 48 hours) stood at 17.6%. The compound also gave a 50% growth inhibitory concentration (GI50) with HCT116 cells (Homo sapiens, HCT-116, 48 h) of over 100 µM.

`COc1cccc(NC(=N)NC(=N)N2CCCCC2)c1.Cl` [Example 13, N1-piperidine-N5-(3-methoxy)phenyl biguanide hydrochloride] displayed a melting point of 230 to 232 °C. Moreover, in the data set with AMPKα, the “AMPK activation effect at 10 μM (%)” value is reported as 97%, the “AMPK activation effect at 50 μM (%)” value came to 300% and the “AMPK activation effect AC150” value was determined as 16.0 µM. Further, the inhibition at 100 µM in the data set on HCT116 cells (Homo sapiens, 48 hours) was 45.4%. For the same compound, the GI50 with HCT116 cells (Homo sapiens, HCT-116, 48 h) was over 100 µM.

Regarding `Cl.N=C(NC(=N)N1CCCCC1)Nc1ccc(F)cc1` [Example 14, N1-piperidine-N5-(4-fluoro)phenyl biguanide hydrochloride], the melting point is 269 to 270 °C. Further, in the data set with AMPKα, the “AMPK activation effect at 10 μM (%)” value stood at 204%, the “AMPK activation effect at 50 μM (%)” value came to 429% and the “AMPK activation effect AC150” value turned out to be 4.0 µM. For the same compound, the inhibition at 100 µM in the data set with HCT116 cells (Homo sapiens, 48 hours) turned out to be 49.7%. This compound also registered a 50% growth inhibitory concentration (GI50) in the data set on HCT116 cells (Homo sapiens, HCT-116, 48 h) of over 100 µM.

`Cl.N=C(NC(=N)N1CCCCC1)Nc1ccccc1F` [Example 15, N1-piperidine-N5-(2-fluoro)phenyl biguanide hydrochloride] displayed a melting point of 155 to 157 °C. In the data set with AMPKα, the “AMPK activation effect at 50 μM (%)” value is on record as 100% and the “AMPK activation effect AC150” value is over 50 µM. Further, the inhibition at 100 µM in the data set with HCT116 cells (Homo sapiens, 48 hours) came out at 39.5%. In the data set on HCT116 cells (Homo sapiens, HCT-116, 48 h), this compound had a 50% growth inhibitory concentration (GI50) of over 100 µM.

Regarding `Cl.N=C(NC(=N)N1CCCCC1)Nc1cccc(F)c1` [Example 16, N1-piperidine-N5-(3-fluoro)phenyl biguanide hydrochloride], the melting point is 201 to 202 °C. Besides, in the data set with AMPKα, the “AMPK activation effect at 50 μM (%)” value amounted to 378% and the “AMPK activation effect AC150” value is 9.9 µM. Also, the inhibition at 100 µM with HCT116 cells (Homo sapiens, 48 hours) was 67.2%. This compound also gave a GI50 in the data set on HCT116 cells (Homo sapiens, HCT-116, 48 h) of 72.4 µM.

Regarding `Cl.N=C(NC(=N)N1CCCCC1)Nc1cccc(OC(F)F)c1` [Example 30, N1-piperidine-N5-(3-difluoromethoxy)phenyl biguanide hydrochloride], in the data set on AMPKα, the “AMPK activation effect at 10 μM (%)” value was 187%, the “AMPK activation effect at 50 μM (%)” value is listed as 636% and the “AMPK activation effect AC150” value was found to be 6.4 µM. Further, in the data set on HCT116 cells (100 μM, 48 hours), the “Cell Growth Inhibition (%) at 100 μM” value worked out at 97.9%. This compound also yielded a GI50 in the data set with HCT116 cells (48 hours) of 33.7 µM.

With `Cl.N=C(NC(=N)N1CCCCC1)Nc1ccc(S(=O)(=O)O)cc1` [Example 42, N1-piperidine-N5-(4-sulfonic acid)phenyl biguanide hydrochloride], in the data set on AMPKα, the “AMPK activation effect at 10 μM (%)” value was 68%, the “AMPK activation effect at 50 μM (%)” value turned out to be 97% and the “AMPK activation effect AC150” value was over 50 µM. The inhibition at 100 µM in the data set with HCT116 cells (Homo sapiens, 48 hours) amounted to 23.2%. The GI50 with HCT116 cells (Homo sapiens, HCT-116, 48 h) is over 100 µM.

For `Cl.N=C(NC(=N)N1CCCCC1)Nc1ccc(S(N)(=O)=O)cc1` [Example 44, N1-piperidine-N5-(4-sulfamoyl)phenyl biguanide hydrochloride], in the data set with AMPKα, the “AMPK activation effect at 10 μM (%)” value stood at 119%, the “AMPK activation effect at 50 μM (%)” value came to 114% and the “AMPK activation effect AC150” value was over 50 µM. Also, the inhibition at 100 µM in the data set on HCT116 cells (Homo sapiens, 48 hours) was determined as 32.6%. For the same compound, in the data set with HCT116 cells (Homo sapiens, HCT-116, 48 h), the 50% growth inhibitory concentration (GI50) was over 100 µM.

`Cl.N=C(NC(=N)N1CCCC1)Nc1ccc(OC(F)(F)F)c(Cl)c1` [Example 56, N1-pyrrolidine-N5-(3-chloro-4-trifluoromethoxy)phenyl biguanide hydrochloride]: in the data set on AMPKα, the “AMPK activation effect at 10 μM (%)” value amounted to 367% and the “AMPK activation effect AC150” value was 2.0 µM. Also, the inhibition at 100 µM in the data set with HCT116 cells (Homo sapiens, 48 hours) was determined as 101%. This compound had a GI50 in the data set on HCT116 cells (Homo sapiens, HCT-116, 48 h) of 4.6 µM.
